# In patent publication US7361637B2, “Hypotensors” (Protein Express Co., Ltd., priority 2000, dated 2008):
# “And” between values parts separate entries of the source, which are not always exact repeats. Equal entries are not always repeated.
# Columns and labels:
# Type in all cases: in vivo, rat
# [1] = test system: SHR male rats; test: Hypotensive effect: blood pressure by carotid cannula and pressure transducer after administration to SHR; conditions: for duration of the hypotensive effect from the administration / sustained hypotension at the highest: 1 mg/kg via cannula from external carotid artery
# Experimental: A group comprising three SHR male rats (12˜14 weeks age; body weight: 258˜310 g) that are pathological model animals of hypertension was used. Ab mix prepared in Example 1, P mix prepared in Example 2 and dissolved in a physiological saline, and anti-renin neutralizing antibody and captopril, which were the drugs used for comparative study, were intravenously administered at the dose of 0.44 mg/kg, 0.6 mg/kg, 0.12 mg/kg and 100 mg/kg, respectively. Measurement of blood pressure was carried out in such a manner that a cannula inserted into common carotid artery and external carotid artery was connected to a pressure transducer (P23XL; Gould Electronics) and introduced into a pressure processor signal conditioner (Gould Electronics), followed by carrying out measurement every ten minutes until 1 hour from administration of the test substance and every one hour thereafter and the data were recorded on a thermal array recorder (RS 3400; Gould Electronics). […]
# A test was carried out for p 1 (pf 1-11), p 2 (pf 5-19) and p 3 (pf 27-41) prepared in Example 2 in the same manner as in Experimental Example 1 using 2 or 4 cases of SHR. The result was that, in the case of administration of 2 mg/kg of p 1, a transient hypertensive action of around 6% was noted immediately after administration, that recovered after 5 minutes from administration, then a hypotensive gradually took place thereafter to an extent of 6% at the highest and a sustained effect was confirmed until 24th hour. […] In the case of administration of 2 mg/kg of p 2, a transient hypotension of around 35% was noted immediately after administration, it recovered at 5 minutes after administration and, after that, a sustained hypotensive action was confirmed until 24th hour to an extent of around 6% at the highest. […] In the case of administration of 10 mg/kg, a hypotension of 7% was noted after 2 hours and, until 24th hour, a sustained hypotensive action where 11% was the highest was confirmed. […]
# [2] = test system: SHR; test: Weight of arteries after 14 days of administration to SHR; conditions: 1.6 mg/kg intravenously once daily for 14 days
# Experimental: The p 1c (pf 5-11) prepared in Example 2 was intravenously administered once daily for consecutive 14 days at the dose of 1.6 mg/kg to a group comprising 4 SHRs. On the 14th day, the rats were killed by bleeding, followed by excising heart and kidney to measure their weights. The result is shown in Table 1 in terms of weight of the organ per 100 g of body weight. […] Weight of each artery was calculated in terms of weight per each area, followed by further converting the calculated value into the value per body weight of each rat and the results were compared and shown in Table 2.
# [3] = test system: SHR; test: Weight of heart and kidney after 14 days of administration to SHR; conditions: 1.6 mg/kg intravenously once daily for 14 days
# Experimental: The p 1c (pf 5-11) prepared in Example 2 was intravenously administered once daily for consecutive 14 days at the dose of 1.6 mg/kg to a group comprising 4 SHRs. On the 14th day, the rats were killed by bleeding, followed by excising heart and kidney to measure their weights. The result is shown in Table 1 in terms of weight of the organ per 100 g of body weight.
compound,measurement,setting,value
"C[C@H](CS)C(=O)N1CCC[C@H]1C(=O)O [captopril, reference compound]",hypotensive action at the 24th hour (completion of the experiment),"[1]; SHR, 100 mg/kg intravenously",no hypotensive action was noted
same,maximum hypotension (at the highest) until the 6th hour from the administration,"[1]; SHR, 100 mg/kg intravenously",31%
"D-His-Pro-Phe-His-Leu-ψ-[CH2NH]-Leu-Val-Tyr [H 6137, reference compound]",duration of the hypotensive effect from the administration,[1],tendency of disappearance of the effect
same,sustained hypotension at the highest,[1]; at 3~8 hours after administration,9%
p 1: rat prorenin profragment peptide pf 1-11 (SEQ ID NO: 9) (LPTDTASFGRI; listed as Rattus norvegicus),transient hypertension immediately after administration,"[1]; SHR, 2 mg/kg intravenously",around 6%
same,sustained hypotension at the highest after recovery of the transient change,"[1]; SHR, 2 mg/kg intravenously, until 24th hour",6%
same,hypotension at 6 hours after administration,"[1]; SHR, 10 mg/kg intravenously",about 7%
p 1a: rat prorenin profragment peptide pf 1-4 (SEQ ID NO: 10) (LPTD; listed as Rattus norvegicus),sustained hypotension at the highest until 24th hour,"[1]; SHR, 10 mg/kg intravenously",13%
same,transient hypertension immediately after administration,"[1]; SHR, 10 mg/kg intravenously",13%
p 1b: rat prorenin profragment peptide pf 1-7 (SEQ ID NO: 11) (LPTDTAS; listed as Rattus norvegicus),sustained hypotension at the highest until 24th hour,"[1]; SHR, 10 mg/kg intravenously",13%
same,transient hypertension immediately after administration,"[1]; SHR, 10 mg/kg intravenously",17%
p 1c: rat prorenin profragment peptide pf 5-11 (SEQ ID NO: 12) (TASFGRI; listed as Rattus norvegicus),"Weight of Artery, Femoral Artery, Mean Value",[2],0.00089 mg/mm^2/g body weight
same,"Weight of Artery, Pulmonary Artery, Mean Value",[2],0.00081 mg/mm^2/g body weight
same,"Weight of Artery, Superior Mesenteric Artery, Mean Value",[2],0.00096 mg/mm^2/g body weight
same,"Weight of Artery, Femoral Artery, individual rats",[2]; 1.6 mg/kg,0.00068 mg/mm^2/g body weight and 0.00094 mg/mm^2/g body weight and 0.00106 mg/mm^2/g body weight and 0.00087 mg/mm^2/g body weight
same,"Weight of Artery, Pulmonary Artery, individual rats",[2]; 1.6 mg/kg,0.00067 mg/mm^2/g body weight and 0.00087 mg/mm^2/g body weight and 0.00088 mg/mm^2/g body weight and 0.00082 mg/mm^2/g body weight
same,"Weight of Artery, Superior Mesenteric Artery, individual rats",[2]; 1.6 mg/kg,0.00094 mg/mm^2/g body weight and 0.00095 mg/mm^2/g body weight and 0.00096 mg/mm^2/g body weight and 0.001 mg/mm^2/g body weight
same,effect on thickening of artery (remodeling of blood vessel),[2]; compared with control group,suppresses the thickening of artery
same,sustained hypotension at the highest until 24th hour,"[1]; SHR, 10 mg/kg intravenously",16%
same,transient hypertension immediately after administration,"[1]; SHR, 10 mg/kg intravenously",21%
same,"Weight of Organ, Heart, Mean Value",[3],0.39 g/100 g body weight
same,"Weight of Organ, Left Kidney, Mean Value",[3],0.35 g/100 g body weight
same,"Weight of Organ, Right Kidney, Mean Value",[3],0.34 g/100 g body weight
same,"Weight of Organ, Heart, individual rats",[3]; 1.6 mg/kg,0.37 g/100 g body weight and 0.4 g/100 g body weight (2×) and 0.39 g/100 g body weight
same,"Weight of Organ, Left Kidney, individual rats",[3]; 1.6 mg/kg,0.34 g/100 g body weight and 0.35 g/100 g body weight (3×)
same,"Weight of Organ, Right Kidney, individual rats",[3]; 1.6 mg/kg,0.34 g/100 g body weight and 0.35 g/100 g body weight (2×) and 0.33 g/100 g body weight
same,effect on hypertrophy of heart and kidney,[3]; compared with physiological saline,suppresses hypertrophy of heart and kidney
p 2a: rat prorenin profragment peptide pf 12-19 (SEQ ID NO: 13) (LLKKMPSV; listed as Rattus norvegicus),duration of the hypotensive effect from the administration,[1],≥ 12 h
same,sustained hypotension at the highest,[1]; at 5~8 hours after administration,11%
same,sustained hypotension at the highest until 24 hours,"[1]; SHR, 1 mg/kg intravenously",14%
same,transient hypertension immediately after administration,"[1]; SHR, 1 mg/kg intravenously",6%
p 2b: rat prorenin profragment peptide pf 11-15 (SEQ ID NO: 14) (ILLKK; listed as Rattus norvegicus),sustained hypotension at the highest until 24 hours,"[1]; SHR, 1 mg/kg intravenously",The same effect was achieved
